Active and inactive are the calls of the source. The calls are words filed in the database; no cut-off is given here.
Legend:
[1] = molecular target: T1, Ubiquitin thioesterase OTUB1 (Homo sapiens, UniProt Q96FW1); assay: Inhibition of N-terminal His-6 tagged OTUB1 (40 to 271 residues) (unknown origin) expressed in Escherichia coli BL21 (DE3) cells at […] using Ub-Rho measured after 0.5 to 3 hrs by fluorescence based Plate reader method relative to control; settings: dose 2.5 µM, time 0.5-3 hrs
[2] = molecular target: T2, Ubiquitin carboxyl-terminal hydrolase 8 (Homo sapiens) (UniProt P40818); assay: Inhibition of N-terminal His-6 tagged USP8 (734 to 1110 residues) (unknown origin) expressed in Escherichia coli BL21 (DE3) cells at 10 nM measured after 3 hrs by fluorescence based Plate reader method relative to control; settings: values are per cent of control
T2 sequence (whole entry): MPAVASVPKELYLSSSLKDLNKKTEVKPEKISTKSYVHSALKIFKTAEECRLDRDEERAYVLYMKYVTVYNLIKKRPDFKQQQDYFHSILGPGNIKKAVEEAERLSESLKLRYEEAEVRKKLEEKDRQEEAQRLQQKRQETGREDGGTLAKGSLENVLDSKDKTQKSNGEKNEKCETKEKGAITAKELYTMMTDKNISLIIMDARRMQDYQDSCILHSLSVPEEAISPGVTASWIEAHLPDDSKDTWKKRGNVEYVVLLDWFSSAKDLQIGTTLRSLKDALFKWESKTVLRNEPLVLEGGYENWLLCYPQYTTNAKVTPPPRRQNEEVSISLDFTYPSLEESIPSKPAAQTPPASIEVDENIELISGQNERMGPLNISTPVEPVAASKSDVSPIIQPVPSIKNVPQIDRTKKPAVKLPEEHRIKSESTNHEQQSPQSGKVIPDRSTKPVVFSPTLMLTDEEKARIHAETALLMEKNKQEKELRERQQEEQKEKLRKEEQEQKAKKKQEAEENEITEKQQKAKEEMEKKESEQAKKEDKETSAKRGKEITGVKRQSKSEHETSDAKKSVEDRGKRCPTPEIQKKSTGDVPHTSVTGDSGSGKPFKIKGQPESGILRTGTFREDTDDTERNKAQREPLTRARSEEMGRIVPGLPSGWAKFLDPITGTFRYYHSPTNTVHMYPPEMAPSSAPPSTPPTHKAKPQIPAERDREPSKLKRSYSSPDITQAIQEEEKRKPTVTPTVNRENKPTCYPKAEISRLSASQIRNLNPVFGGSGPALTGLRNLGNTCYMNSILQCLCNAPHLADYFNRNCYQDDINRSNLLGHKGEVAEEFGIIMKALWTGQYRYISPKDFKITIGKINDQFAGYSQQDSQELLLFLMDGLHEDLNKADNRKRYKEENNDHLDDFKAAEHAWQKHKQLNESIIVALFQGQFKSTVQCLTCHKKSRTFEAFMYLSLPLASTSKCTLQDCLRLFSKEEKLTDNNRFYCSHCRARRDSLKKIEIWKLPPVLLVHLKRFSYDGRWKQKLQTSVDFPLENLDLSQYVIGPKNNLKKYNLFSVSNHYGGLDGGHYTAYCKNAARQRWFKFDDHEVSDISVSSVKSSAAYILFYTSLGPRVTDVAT

[3] = Aqueous solubility of the compound measured after 24 hr by […] LC-MS/MS analysis; type: physicochemical; settings: buffer
[4] = molecular target: T1, Ubiquitin thioesterase OTUB1; assay: Inhibition of N-terminal His-6 tagged OTUB1 (40 to 271 residues) (unknown origin) expressed in Escherichia coli BL21 (DE3) cells at 100 nM using Ub-Rho measured after 0.5 to 3 hrs by fluorescence based Plate reader method relative to control; settings: time 0.5-3 hrs, values are per cent of control
[5] = molecular target: T2, Ubiquitin carboxyl-terminal hydrolase 8 (Homo sapiens); assay: Inhibition of N-terminal His-6 tagged USP8 (734 to 1110 residues) (unknown origin) expressed in Escherichia coli BL21 (DE3) cells at 100 nM measured after 3 hrs by fluorescence based Plate reader method relative to control; settings: values are per cent of control
[6] = molecular target: T1, Ubiquitin thioesterase OTUB1; assay: Inhibition of N-terminal His-6 tagged OTUB1 (40 to 271 residues) (unknown origin) expressed in Escherichia coli BL21 (DE3) cells at 10 nM using Ub-Rho measured after 0.5 to 3 hrs by fluorescence based Plate reader method relative to control; settings: time 0.5-3 hrs, values are per cent of control
[7] = molecular target: T1, Ubiquitin thioesterase OTUB1; assay: Binding affinity to OTUB1 in HEK293T cells at 5 uM preincubated for 30 mins followed by UV irradiation and measured after 20 mins by Western blot assay; type: cell-based; settings: time 50.0 min
[8] = molecular target: T1, Ubiquitin thioesterase OTUB1; assay: Inhibition of N-terminal His-6 tagged OTUB1 (40 to 271 residues) (unknown origin) expressed in Escherichia coli BL21 (DE3) cells using Ub-Rho measured after 0.5 to 3 hrs by fluorescence based Plate reader method
[9] = molecular target: T1, Ubiquitin thioesterase OTUB1; assay: Binding affinity to OTUB1 in HEK293T cells at […] preincubated for 30 mins followed by UV irradiation and measured after 20 mins by Western blot analysis; type: cell-based; settings: dose 2.5 µM, time 50.0 min
[10] = molecular target: T1, Ubiquitin thioesterase OTUB1; assay: Binding affinity to OTUB1 in HEK293T cells at 0.5 uM preincubated for 2 hrs followed by UV irradiation and measured after 20 mins by Western blot analysis; type: cell-based; settings: time 140.0 min
[11] = molecular target: T1, Ubiquitin thioesterase OTUB1; assay: Binding affinity to OTUB1 in HEK293T cells at 1 uM preincubated for 2 hrs followed by UV irradiation and measured after 20 mins by silver staining based gel electrophoresis assay; type: cell-based; settings: time 140.0 min

T1 sequence (Q96FW1 whole entry, the tested form may be a part): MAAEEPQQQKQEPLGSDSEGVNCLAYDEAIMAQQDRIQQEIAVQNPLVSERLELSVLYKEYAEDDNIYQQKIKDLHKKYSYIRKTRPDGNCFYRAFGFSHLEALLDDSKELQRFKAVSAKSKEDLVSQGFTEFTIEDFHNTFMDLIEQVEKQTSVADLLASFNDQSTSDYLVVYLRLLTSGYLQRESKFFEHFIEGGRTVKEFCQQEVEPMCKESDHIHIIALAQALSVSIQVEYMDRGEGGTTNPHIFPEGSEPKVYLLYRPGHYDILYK

SMILES | residual activity [2] [%] | solubility [3] | residual activity [4] [%] | residual activity [5] [%] | residual activity [6] [%] | IC50 [8] [µM] | further results
O=C1c2ccccc2C(=O)c2oc(-c3ccccc3)nc21 | – | – | – | – | – | – | inhibition [1]: 100%
CN1CCN(CCOc2ccc(Cl)c(-c3nc4c(o3)C(=O)c3ccccc3C4=O)c2F)CC1 | 33.1 | Soluble | 7.2 | 32.6 | 14.4 | – | –
C#CCCC1(CCN2CC[C@@H](Oc3cccc(-c4nc5c([nH]4)C(=O)c4ccccc4C5=O)c3)C2)N=N1 | – | – | – | – | – | 6.12 | Activity [7]: Active

More lines, main results first:

residual activity [2] [%] | solubility [3] | residual activity [4] [%] | residual activity [5] [%] | residual activity [6] [%] | IC50 [8] [µM] | SMILES | further results
26.7 | Soluble | 8.7 | 21.4 | 17 | – | CN1CCN(CCOc2ccc(F)c(-c3nc4c(o3)C(=O)c3ccccc3C4=O)c2Cl)CC1 | –
– | – | – | – | – | 0.037 | C#CCCC1(CCN2CC[C@@H](Oc3cccc(-c4nc5c(o4)C(=O)c4ccccc4C5=O)c3)C2)N=N1 | Activity [9]: Active; Activity [10]: Active; Activity [11]: Active
51.8 | Soluble | 12.8 | 24.9 | 23.6 | – | CN1CC[C@@H](Oc2cc(-c3nc4c(o3)C(=O)c3ccccc3C4=O)ccc2Cl)C1 | –
